{
  "source": "paper PMC4138601",
  "about": "(Analytical and bioanalytical chemistry, 2012)",
  "key": {"[1]": {"target": "T1, Sphingomyelinase from human placenta (human L-ASM) (Homo sapiens, UniProt P17405)", "T1 sequence (P17405 47-631)": "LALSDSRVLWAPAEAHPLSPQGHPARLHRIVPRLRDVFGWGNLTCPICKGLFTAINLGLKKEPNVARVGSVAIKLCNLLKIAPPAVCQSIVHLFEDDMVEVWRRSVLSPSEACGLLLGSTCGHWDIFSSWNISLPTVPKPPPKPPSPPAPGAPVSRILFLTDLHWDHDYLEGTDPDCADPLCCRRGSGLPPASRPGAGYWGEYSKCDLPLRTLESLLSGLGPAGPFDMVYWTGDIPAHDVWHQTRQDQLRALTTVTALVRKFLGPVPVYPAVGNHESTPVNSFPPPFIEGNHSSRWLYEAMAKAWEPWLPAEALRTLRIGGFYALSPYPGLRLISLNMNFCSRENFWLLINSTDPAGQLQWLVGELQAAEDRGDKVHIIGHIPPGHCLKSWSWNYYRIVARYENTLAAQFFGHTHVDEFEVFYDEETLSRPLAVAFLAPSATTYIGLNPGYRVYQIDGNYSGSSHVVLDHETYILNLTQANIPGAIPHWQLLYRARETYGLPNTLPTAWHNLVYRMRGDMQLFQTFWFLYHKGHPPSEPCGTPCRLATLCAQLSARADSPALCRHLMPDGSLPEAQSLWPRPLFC", "assay": "SMase assay with natural substrate sphingomyelin", "format": "biochemical", "conditions": "maximal inhibition; for Maximal resp., natural substrate (pH 5.0): pH 5.0 buffer; for Maximal resp., natural substrate (pH 6.5): pH 6.5 buffer"}, "[2]": {"target": "T1, Sphingomyelinase from human placenta (human L-ASM)", "assay": "SMase assay using HMU-PC profluorescence substrate", "format": "biochemical", "conditions": "maximal inhibition, artificial substrate HMU-PC"}},
  "data": [
    {"smiles": "O=c1c(O)c(-c2cccs2)oc2ccccc12", "note": "[MLS000097140]", "values": [
      {"measurement": "Maximal resp., natural substrate (pH 5.0)", "setting": "[1]", "result": 81.7, "unit": "%"},
      {"measurement": "Maximal resp., natural substrate (pH 6.5)", "setting": "[1]", "result": 82.7, "unit": "%"},
      {"measurement": "Maximal resp., HMU-PC substrate (pH 5.0)", "setting": "[2]", "result": 6.2, "unit": "%"}
    ]},
    {"smiles": "S=c1nc(C2CC2)[nH]c2ccccc12", "note": "[MLS000097294]", "values": [
      {"measurement": "Maximal resp., natural substrate (pH 5.0)", "setting": "[1]", "result": 103.2, "unit": "%"},
      {"measurement": "Maximal resp., natural substrate (pH 6.5)", "setting": "[1]", "result": 104.4, "unit": "%"},
      {"measurement": "Maximal resp., HMU-PC substrate (pH 5.0)", "setting": "[2]", "result": 99.1, "unit": "%"}
    ]},
    {"smiles": "COC(=O)C1=C(C)N(Cc2ccc(C)cc2)C(=O)/C1=C\\c1ccc(O)c(OC)c1", "note": "[MLS000574110]", "values": [
      {"measurement": "Maximal resp., natural substrate (pH 5.0)", "setting": "[1]", "result": 79.1, "unit": "%"},
      {"measurement": "Maximal resp., natural substrate (pH 6.5)", "setting": "[1]", "result": 84.8, "unit": "%"},
      {"measurement": "Maximal resp., HMU-PC substrate (pH 5.0)", "setting": "[2]", "result": 82.1, "unit": "%"}
    ]},
    {"smiles": "O=S(=O)(Nc1ccc(N=Nc2ccc(O)c3ccccc23)cc1)c1ccccc1", "note": "[MLS000707545]", "values": [
      {"measurement": "Maximal resp., natural substrate (pH 5.0)", "setting": "[1]", "result": 72.0, "unit": "%"},
      {"measurement": "Maximal resp., natural substrate (pH 6.5)", "setting": "[1]", "result": 77.2, "unit": "%"},
      {"measurement": "Maximal resp., HMU-PC substrate (pH 5.0)", "setting": "[2]", "result": 93.4, "unit": "%"}
    ]},
    {"smiles": "O=C1CC(c2ccccc2)CC(=O)C1CS(=O)(=O)c1ccccc1", "note": "(stereo not drawn) [MLS000720877]", "values": [
      {"measurement": "Maximal resp., natural substrate (pH 5.0)", "setting": "[1]", "result": 31.1, "unit": "%"},
      {"measurement": "Maximal resp., natural substrate (pH 6.5)", "setting": "[1]", "result": 61.6, "unit": "%"},
      {"measurement": "Maximal resp., HMU-PC substrate (pH 5.0)", "setting": "[2]", "result": 99.2, "unit": "%"}
    ]},
    {"smiles": "CCS(=O)(=O)C1=NN2C(=N)/C(=C\\c3ccc(OC(=O)c4ccco4)cc3)C(=O)N=C2S1", "note": "[MLS000950682]", "values": [
      {"measurement": "Maximal resp., natural substrate (pH 5.0)", "setting": "[1]", "result": 43.4, "unit": "%"},
      {"measurement": "Maximal resp., natural substrate (pH 6.5)", "setting": "[1]", "result": 71.2, "unit": "%"},
      {"measurement": "Maximal resp., HMU-PC substrate (pH 5.0)", "setting": "[2]", "result": 79.0, "unit": "%"}
    ]},
    {"smiles": "Clc1ccc(SCCOCCN2CCCCCC2)cc1.O=C(O)C(=O)O", "note": "[MLS001164567]", "values": [
      {"measurement": "Maximal resp., natural substrate (pH 5.0)", "setting": "[1]", "result": 97.8, "unit": "%"},
      {"measurement": "Maximal resp., natural substrate (pH 6.5)", "setting": "[1]", "result": 100.7, "unit": "%"},
      {"measurement": "Maximal resp., HMU-PC substrate (pH 5.0)", "setting": "[2]", "result": 15.8, "unit": "%"}
    ]},
    {"smiles": "COc1cc(C(=O)Nc2scc(-c3ccc(Br)cc3)c2C(=O)O)cc(OC)c1OC", "note": "[MLS001164606]", "values": [
      {"measurement": "Maximal resp., natural substrate (pH 5.0)", "setting": "[1]", "result": 9.1, "unit": "%"},
      {"measurement": "Maximal resp., natural substrate (pH 6.5)", "setting": "[1]", "result": 26.8, "unit": "%"},
      {"measurement": "Maximal resp., HMU-PC substrate (pH 5.0)", "setting": "[2]", "result": 51.8, "unit": "%"}
    ]},
    {"smiles": "COc1ccc(C2=NN(C(=O)COC(=O)c3ccc(S(C)(=O)=O)c([N+](=O)[O-])c3)C(c3ccco3)C2)cc1", "note": "(stereo not drawn) [MLS002248315]", "values": [
      {"measurement": "Maximal resp., natural substrate (pH 5.0)", "setting": "[1]", "result": 0.8, "unit": "%"},
      {"measurement": "Maximal resp., natural substrate (pH 6.5)", "setting": "[1]", "result": 8.6, "unit": "%"},
      {"measurement": "Maximal resp., HMU-PC substrate (pH 5.0)", "setting": "[2]", "result": 31.4, "unit": "%"}
    ]}
  ]
}
